# According to PubChem BioAssay AID1963986 (Molecular Pharmacology Branch, DTP, NCI, 2024):
# System: 171881-019-R-J1-PDC tumor spheroid viability
# Test: Anticancer human tumor 171881-019-R-J1-PDC patient-derived invasive breast carcinoma cell line growth inhibition [PI3K]
# Details: spheroids with HUVEC and MSC; for IC50: curve of first compound; for viability, T/C: stronger effect = lower value
# Procedure, shortened: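 Combination activity was assessed by viability in multicellular tumor spheroids carrying HUVEC and MSC components. Agents were tested with PI3K inhibitors from a Cmax-based top dose (or 10 microM) downward in half-log increments.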
# [1] = second compound 0.00316 µM, first compound 0.0316 µM
# [2] = second compound 0.00316 µM, first compound 0.1 µM
# [3] = second compound 0.00316 µM, first compound 0.316 µM
# [4] = second compound 0.00316 µM, first compound 1 µM
# [5] = second compound 0.00316 µM, first compound 3.16 µM
# [6] = second compound 0.00316 µM, first compound 10 µM
# [7] = second compound 0.01 µM, first compound 0.0316 µM
# [8] = second compound 0.01 µM, first compound 0.1 µM
# [9] = second compound 0.01 µM, first compound 0.316 µM
# [10] = second compound 0.01 µM, first compound 1 µM
# [11] = second compound 0.01 µM, first compound 3.16 µM
# [12] = second compound 0.01 µM, first compound 10 µM
# [13] = second compound 0.0316 µM, first compound 0.0316 µM
# [14] = second compound 0.0316 µM, first compound 0.1 µM
# [15] = second compound 0.0316 µM, first compound 0.316 µM
# [16] = second compound 0.0316 µM, first compound 1 µM
# [17] = second compound 0.0316 µM, first compound 3.16 µM
# [18] = second compound 0.0316 µM, first compound 10 µM
# [19] = second compound 0.1 µM, first compound 0.0316 µM
# [20] = second compound 0.1 µM, first compound 0.1 µM
# [21] = second compound 0.1 µM, first compound 0.316 µM
# [22] = second compound 0.1 µM, first compound 1 µM
# [23] = second compound 0.1 µM, first compound 3.16 µM
# [24] = second compound 0.1 µM, first compound 10 µM
# [25] = second compound 0.316 µM, first compound 0.0316 µM
# [26] = second compound 0.316 µM, first compound 0.1 µM
# [27] = second compound 0.316 µM, first compound 0.316 µM
# [28] = second compound 0.316 µM, first compound 1 µM
# [29] = second compound 0.316 µM, first compound 3.16 µM
# [30] = second compound 0.316 µM, first compound 10 µM
# [31] = second compound 1 µM, first compound 0.0316 µM
# [32] = second compound 1 µM, first compound 0.1 µM
# [33] = second compound 1 µM, first compound 0.316 µM
# [34] = second compound 1 µM, first compound 1 µM
# [35] = second compound 1 µM, first compound 3.16 µM
# [36] = second compound 1 µM, first compound 10 µM
# 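Also: spheroids exposed to compound for 7 days before viability read.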
# 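For viability, T/C in this document: 100% = DMSO vehicle-treated spheroids.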
structure (smiles),measurement,setting,value
C=CC(=O)N1CCN(c2nc(=O)n(-c3c(C)ccnc3C(C)C)c3nc(-c4c(O)cccc4F)c(F)cc23)C(C)C1 (centres undefined) + CC(Nc1ccc2c(c1)OCCn1cc(N3C(=O)OCC3C(F)F)nc1-2)C(N)=O,IC50,second compound 0.00316 µM,9110 nM
same,IC50,second compound 0.01 µM,7320 nM
same,IC50,second compound 0.0316 µM,3970 nM
same,IC50,second compound 0.1 µM,< 31.6 nM
same,IC50,second compound 0.316 µM,< 31.6 nM
same,IC50,second compound 1 µM,< 31.6 nM
same,"viability, T/C",[1],96.8%
same,"viability, T/C",[2],90.1%
same,"viability, T/C",[3],92.8%
same,"viability, T/C",[4],93.1%
same,"viability, T/C",[5],88.5%
same,"viability, T/C",[6],46.6%
same,"viability, T/C",[7],79.5%
same,"viability, T/C",[8],84.9%
same,"viability, T/C",[9],78.5%
same,"viability, T/C",[10],84.6%
same,"viability, T/C",[11],79%
same,"viability, T/C",[12],39.1%
same,"viability, T/C",[13],52.7%
same,"viability, T/C",[14],56.2%
same,"viability, T/C",[15],52.1%
same,"viability, T/C",[16],57.7%
same,"viability, T/C",[17],54.7%
same,"viability, T/C",[18],31.7%
same,"viability, T/C",[19],37.6%
same,"viability, T/C",[20],37.8%
same,"viability, T/C",[21],40.2%
same,"viability, T/C",[22],36.3%
same,"viability, T/C",[23],39.2%
same,"viability, T/C",[24],22.1%
same,"viability, T/C",[25],26.1%
same,"viability, T/C",[26],29.2%
same,"viability, T/C",[27],27.8%
same,"viability, T/C",[28],30%
same,"viability, T/C",[29],26.7%
same,"viability, T/C",[30],12.6%
same,"viability, T/C",[31],20.2%
same,"viability, T/C",[32],21.7%
same,"viability, T/C",[33],20.7%
same,"viability, T/C",[34],22.6%
same,"viability, T/C",[35],20.7%
same,"viability, T/C",[36],10.7%
CC1(C)CCC(CN2CCN(c3ccc(C(=O)NS(=O)(=O)c4ccc(NCC5CCOCC5)c([N+](=O)[O-])c4)c(Oc4cnc5[nH]ccc5c4)c3)CC2)=C(c2ccc(Cl)cc2)C1 + CC(Nc1ccc2c(c1)OCCn1cc(N3C(=O)OCC3C(F)F)nc1-2)C(N)=O,IC50,second compound 0.00316 µM,3730 nM
same,IC50,second compound 0.01 µM,2720 nM
same,IC50,second compound 0.0316 µM,1590 nM
same,IC50,second compound 0.1 µM,< 31.6 nM
same,IC50,second compound 0.316 µM,< 31.6 nM
same,IC50,second compound 1 µM,< 31.6 nM
same,"viability, T/C",[1],83%
same,"viability, T/C",[2],73.7%
same,"viability, T/C",[3],91.5%
same,"viability, T/C",[4],88.1%
same,"viability, T/C",[5],55.9%
same,"viability, T/C",[6],15%
same,"viability, T/C",[7],79.2%
same,"viability, T/C",[8],87.3%
same,"viability, T/C",[9],76.8%
same,"viability, T/C",[10],72.5%
same,"viability, T/C",[11],46.5%
same,"viability, T/C",[12],13.9%
same,"viability, T/C",[13],55.9%
same,"viability, T/C",[14],56.8%
same,"viability, T/C",[15],61.6%
same,"viability, T/C",[16],55.3%
same,"viability, T/C",[17],41.2%
same,"viability, T/C",[18],10.3%
same,"viability, T/C",[19],41.6%
same,"viability, T/C",[20],41.2%
same,"viability, T/C",[21],40.6%
same,"viability, T/C",[22],43.4%
same,"viability, T/C",[23],36.5%
same,"viability, T/C",[24],7.86%
same,"viability, T/C",[25],28.6%
same,"viability, T/C",[26],27.1%
same,"viability, T/C",[27],28.5%
same,"viability, T/C",[28],28.3%
same,"viability, T/C",[29],29.5%
same,"viability, T/C",[30],5%
same,"viability, T/C",[31],20.9%
same,"viability, T/C",[32],20.9%
same,"viability, T/C",[33],22%
same,"viability, T/C",[34],23.4%
same,"viability, T/C",[35],22%
same,"viability, T/C",[36],6.08%
